Laboratory results from patent publication US20090318385A1, “Pyrazolopyride derivative and phosphodiesterase ( pde) inhibitors containing the same as active ingredient” (priority 2006, published 2009).

Tests used:
PDE4B catalytic domain = target: T1, PDE4B catalytic domain (Homo sapiens, UniProt Q07343); assay: Phosphodiesterase inhibitory activity (recombinant PDE4Bcat, [3H]cAMP); type: biochemical; conditions: 30° C. for 20 minutes, read-out: IC50 (μmol/L) PDE4
T1 construct: The cDNA of PDE4B catalytic domain (hereinafter abbreviated as Cat) was isolated from human RNA by RT-PCR; made in house; host or cells: Sf9 insect cells (baculovirus, Bac-to-Bac)
Source text: The cDNA of PDE4B catalytic domain (hereinafter abbreviated as Cat) was isolated from human RNA by RT-PCR. The isolated cDNA fragments were inserted into Sf9 insect cells using Gateway system (product of Invitrogen Corporation) and Bac-to-Bac (registered trademark) Baculovirus Expression system (product of Invitrogen Corporation) to express a target PDE protein. The recombinant PDE4Bcat was purified from the culture supernatants or cell extracts of Sf9 cells expressing high levels of the PDE protein by ion exchange chromatography and was used for the following experiments.
A 4 mmol/L solution of each test compound was serially diluted four-fold with a 15% DMSO solution to prepare solutions with concentrations of 15 nmol/L to 4 mmol/L (the final concentrations used in the experiments were 1.5 nmol/L to 400 μmol/L). 10 μL of the prepared test compound solutions, [^3H] cAMP diluted with a buffer solution (40 mmol/L Tris-HCl (pH: 7.4), 10 mmol/L MgCl2), and 40 μL of the recombinant human PDE protein (2×10^−6 units, 1 unit is defined as the amount of PDE that breaks down 1 μmol/L of cAMP in one minute under the conditions of a pH of 7.5 and 30° C.) were added to a 96-well plate. The mixtures were reacted at 30° C. for 20 minutes. Then, the resultant mixtures were reacted at 65° C. for 2 minutes. Subsequently, […] of 1 mg/mL 5′-nucleotidase (Crotalusatrox venom, product of Sigma) was added to the mixtures, and the mixtures were reacted at 30° C. for 10 minutes. After completion of the reaction, 200 μL of a solution of Dowex (300 mg/mL Dowex 1x8-400 (product of Sigma Aldrich), 33% ethanol) was added to the mixtures, and the mixtures were shaken at 4° C. for 20 minutes. Subsequently, 200 μL of MicroScint 20 (product of Packard) was added to the mixtures, and measurement was performed using a scintillation counter (Topcount, product of Packard). IC50 values were calculated using Graph Pad Prism v3.03 (product of GraphPad Software). When 1 μmol/L>the IC50 value≧0.1 μmol/L, the results were represented by “+.” When 0.1 μmol/L>the IC50 value, the results were represented by “++.”

[1] = system: histamine-induced bronchoconstriction; assay: Histamine-induced airway contraction reaction in guinea pigs; type: in vivo; conditions: test compound 1 mg/kg i.v., histamine 12.5 μg/kg i.v., airflow 30 seconds after administration
Procedure: Guinea pigs were anesthetized with pentobarbital (30 mg/kg, i.p.). A cannula for intravenous administration, a cannula for collecting blood and measuring blood pressure, and a tracheal cannula were inserted into the left external jugular vein, right internal carotid artery, and trachea, respectively. The guinea pigs were maintained on artificial respiration under the conditions of 60 times/min and 10 mL/kg/stroke. The airflow from the side branch of the tracheal cannula was measured by a bronchospasm transducer (Ugo-Basile) and recorded on a computer via Power Lab (ADInstruments Japan). The guinea pigs were immobilized with gallamine (10 mg/kg, i.v.), and histamine was administered at 10-minute intervals (12.5 μg/kg, i.v.). After the histamine-induced bronchoconstriction was constant, one of the test compounds (1 mg/kg, i.v.) dissolved in DMSO was administered. We examined the inhibitory action of test compounds on histamine-induced bronchoconstriction 30 seconds after compounds administration. Bronchoconstriction was recorded as the value of airflow, and the results were represented by the ratio of the maximum value of the histamine-induced airflow 30 seconds after the administration to the maximum value of the airflow before the administration. When the inhibition ratio≧90%, the results were represented by “+++.” When 90%>the inhibition ratio≧70%, the results were represented by “++.” When 70%>the inhibition ratio≧30%, the results were represented by “+.”

[2] = system: total number of leukocytes in bronchoalveolar lavage fluid after LPS inhalation; assay: LPS acute inflammation model in rats; type: in vivo; conditions: Rattus norvegicus, Leukocyte, po, 3 mg/kg orally one hour before LPS inhalation, total leukocytes in BALF 3 hours after LPS inhalation, read-out: Inhibition ratio
Procedure: 3 mg/kg of the compounds were orally administered to rats one hour before inhalation of lipopolysaccharide (LPS) from E. coli serotype 055:B5, rats were inhalted nebulizing LPS solution (50 mL) by nebulizer for 30 minutes. Then, 3 hours after the LPS inhalation, rats were euthanized with 20% urethane (5 ml/rat, i.p.) 5 ml of physiological saline for bronchoalveolar lavage was injected into the bronchoalveolar space through the airway, and the bronchoalveolar space was washed 3 times using a 5 mL syringe. This procedure was repeated twice, and the solution was collected as bronchoalveolar lavage fluid (BALF). The collected BALF was centrifuged at 1,200 rpm and 4° C. for 10 minutes (Hirtachi; himac CR 5 DL). The sediment was re-suspended in 10 mL of a 0.1% bovine serum albumin-physiological saline, and an equivalent amount of Turk's solution was added to the suspension to stain leukocytes. The total number of leukocytes was counted under a microscope to determine the inhibition ratio. When the inhibition ratio≧60%, the results were represented by “++.” When 60%>the inhibition ratio≧30%, the results were represented by “+.”

T1 sequence (Q07343 330-659 limits assumed): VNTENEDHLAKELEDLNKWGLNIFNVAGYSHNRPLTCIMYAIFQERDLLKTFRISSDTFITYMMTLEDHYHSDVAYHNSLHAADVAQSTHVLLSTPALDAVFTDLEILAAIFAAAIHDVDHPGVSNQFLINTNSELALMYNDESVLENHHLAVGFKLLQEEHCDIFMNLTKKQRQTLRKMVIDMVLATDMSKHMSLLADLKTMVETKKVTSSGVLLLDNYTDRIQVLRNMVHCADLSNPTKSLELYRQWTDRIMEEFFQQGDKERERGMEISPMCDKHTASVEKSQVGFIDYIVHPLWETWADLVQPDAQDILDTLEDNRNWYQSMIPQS

SMILES	IC50 (PDE4B catalytic domain)	melting point	Inhibition ratio [1]	inhibition in vivo at 3 mg/kg [2]
COc1ccc(C(=O)Cc2ccncc2)c2cc(C(F)(F)F)nn12 [80 (90), 1-(7-Methoxy-2-trifluoromethylpyrazolo[1,5-a]pyridin-4-yl)-2-(pyridin-4-yl)ethanone]	< 0.1 µmol/L		+++ (When the inhibition ratio≧90%, the results were represented by “+++.”)	
COc1ccc(C(O)Cc2ccncc2)c2cc(C(F)(F)F)nn12 (stereo not shown) [Example 77, 1-(7-Methoxy-2-trifluoromethylpyrazolo[1,5-a]pyridin-4-yl)-2-(pyridin-4-yl)ethanol]	0.1 to 1 µmol/L		+ (When 70%>the inhibition ratio≧30%, the results were represented by “+.”)	
COc1ccc(/C(=C/c2ccncc2)c2ccccc2)c2cc(C(F)(F)F)nn12 [Example 84, (E)-7-methoxy-4-[1-phenyl-2-(pyridin-4-yl)vinyl]-2-trifluoromethylpyrazolo[1,5-a]pyridine]	< 0.1 µmol/L			
COc1ccc(C(Cc2ccncc2)c2ccccc2)c2cc(C(F)(F)F)nn12 (stereo not shown) [Example 86, 7-Methoxy-4-[1-phenyl-2-(pyridin-4-yl)ethyl]-2-trifluoromethylpyrazolo[1,5-a]pyridine]	< 0.1 µmol/L			
COc1ccc(C(O)Cc2c(Cl)cncc2Cl)c2cc(C(F)(F)F)nn12 (stereo not shown) [Example 87, 2-(3,5-Dichloropyridin-4-yl)-1-(7-methoxy-2-trifluoromethylpyrazolo[1,5-a]pyridin-4-yl)ethanol]	< 0.1 µmol/L			
COc1ccc(CCc2cc[n+]([O-])cc2)c2cc(C(F)(F)F)nn12 [Example 91, 4-(2-(7-Methoxy-2-(trifluoromethyl)pyrazolo[1,5-a]pyridin-4-yl)ethyl)pyridine 1-oxide]	< 0.1 µmol/L			≥ 60%
COc1ccc(C(=O)Cc2c(Cl)c[n+]([O-])cc2Cl)c2cc(C(F)(F)F)nn12 [Example 92, 3,5-Dichloro-4-(2-(7-methoxy-2-(trifluoromethyl)pyrazolo[1,5-a]pyridin-4-yl)-2-oxoethyl)pyridine 1-oxide]	< 0.1 µmol/L			≥ 60%
COc1ccc(C(=O)Cc2cc[n+]([O-])cc2)c2cc(C(F)(F)F)nn12 [Example 93, 4-(2-(7-Methoxy-2-(trifluoromethyl)pyrazolo[1,5-a]pyridin-4-yl)-2-oxoethyl)pyridine 1-oxide]	< 0.1 µmol/L	157 to 161 °C (dec.)		≥ 60%
COc1ccc(CCc2c(Cl)cncc2Cl)c2cc(C(F)(F)F)nn12 [Example 95, 4-(2-(3,5-Dichloropyridin-4-yl)ethyl)-7-methoxy-2-(trifluoromethyl)pyrazolo[1,5-a]pyridine]		158 to 160 °C (dec.)		
COc1ccc(C(=O)Cc2ccncc2Cl)c2cc(C(F)(F)F)nn12 [Example 97, 2-(3-Chloropyridin-4-yl)-1-(7-methoxy-2-(trifluoromethyl)pyrazolo[1,5-a]pyridin-4-yl)ethanone]		188 to 191 °C		
COc1ccc(CCc2c(Cl)cncc2Cl)c2cc(C(F)F)nn12 [Example 102, 4-(2-(3,5-Dichloropyridin-4-yl)ethyl)-2-(difluoromethyl)-7-methoxypyrazolo[1,5-a]pyridine]		153 to 156 °C		
COc1ccc(CCc2ccncc2)c2cc(C(F)F)nn12 [Example 104, 2-(Difluoromethyl)-7-methoxy-4-(2-(pyridin-4-yl)ethyl)pyrazolo[1,5-a]pyridine]		121 to 123 °C		
COc1ccc(C(=O)Cc2c(Cl)c[n+]([O-])cc2Cl)c2cc(C(F)F)nn12 [Example 108, 3,5-Dichloro-4-(2-(2-(difluoromethyl)-7-methoxypyrazolo[1,5-a]pyridin-4-yl)-2-oxoethyl)pyridine 1-oxide]	< 0.1 µmol/L			≥ 60%
COc1ccc(C(=O)Cc2ccncc2)c2cc(C(F)F)nn12 [Example 109, 1-(2-(Difluoromethyl)-7-methoxypyrazolo[1,5-a]pyridin-4-yl)-2-(pyridin-4-yl)ethanone]		186 to 191 °C (dec.)		
COc1ccc(C(=O)Cc2ccncc2Cl)c2cc(C(F)F)nn12 [Example 111, 2-(3-Chloropyridin-4-yl)-1-(2-(difluoromethyl)-7-methoxypyrazolo[1,5-a]pyridin-4-yl)ethanone]		191 to 194 °C (dec.)		
COc1ccc(C(=O)Cc2c(Cl)c[n+]([O-])cc2Cl)c2cc(C#N)nn12 [Example 142, 3,5-Dichloro-4-(2-(2-cyano-7-methoxypyrazolo[1,5-a]pyridin-4-yl)-2-oxoethyl)pyridine 1-oxide]	< 0.1 µmol/L			≥ 60%

Further lines, with some results ahead:

IC50 (PDE4B catalytic domain)	melting point	SMILES	Inhibition ratio [1]	inhibition in vivo at 3 mg/kg [2]
< 0.1 µmol/L	220 to 223 °C	CNc1ccc(C(=O)Cc2c(Cl)cncc2Cl)c2cc(C(F)(F)F)nn12 [Example 99, 2-(3,5-Dichloropyridin-4-yl)-1-(7-(methylamino)-2-(trifluoromethyl)pyrazolo[1,5-a]pyridin-4-yl)ethanone]		
	234 to 238 °C	CN(C)c1ccc(C(=O)Cc2c(Cl)cncc2Cl)c2cc(C(F)(F)F)nn12 [Example 100, 2-(3,5-Dichloropyridin-4-yl)-1-(7-(dimethylamino)-2-(trifluoromethyl)pyrazolo[1,5-a]pyridin-4-yl)ethanone]		
	208 to 211 °C (dec.)	COc1ccc(C(=O)Cc2c(Cl)cncc2Cl)c2cc(C(F)F)nn12 [Example 107, 2-(3,5-dichloropyridin-4-yl)-1-(2-(difluoromethyl)-7-methoxypyrazolo[1,5-a]pyridin-4-yl)ethanone]		
< 0.1 µmol/L		COc1ccc(C(=O)Cc2ccncc2)c2cc(C3CC3)nn12 [Example 121, 1-(2-Cyclopropyl-7-methoxypyrazolo[1,5-a]pyridin-4-yl)-2-(pyridin-4-yl)ethanone]		≥ 60%
< 0.1 µmol/L		COc1ccc(C(=O)Cc2c(Cl)cncc2Cl)c2c(Cl)c(C3CC3)nn12 [Example 122, 1-(3-Chloro-2-cyclopropyl-7-methoxypyrazolo[1,5-a]pyridin-4-yl)-2-(3,5-dichloropyridin-4-yl)ethanone]		≥ 60%
	196 to 200 °C	CNc1ccc(C(=O)Cc2c(Cl)cncc2Cl)c2cc(C3CC3)nn12 [Example 123, 1-(2-Cyclopropyl-7-(methylamino)pyrazolo[1,5-a]pyridin-4-yl)-2-(3,5-dichloropyridin-4-yl)ethanone]		
	216 to 220 °C	CN(C)c1ccc(C(=O)Cc2c(Cl)cncc2Cl)c2cc(C3CC3)nn12 [Example 124, 1-(2-Cyclopropyl-7-(dimethylamino)pyrazolo[1,5-a]pyridin-4-yl)-2-(3,5-dichloropyridin-4-yl)ethanone]		
